Assay results as given in paper PMC7169845, “Synthesis and Bioactivity of Phthalimide Analogs as Potential Drugs to Treat Schistosomiasis, a Neglected Disease of Poverty” (Pharmaceuticals, 2020).

Legend:
[1] = test system: HepG2-A16-CD81EGFP cells; assay: HepG2 cell cytotoxicity assay (CellTiter-Glo); format: cell-based; details: Homo sapiens, 72 h; for EC50: counter toxicity
Method: HepG2-A16-CD81EGFP cells (human hepatocarcinoma HepG2 cells stably transformed to express the tetraspanin CD81 receptor [51, 52]) were cultured at 37 °C in 5% CO2 in DMEM (without phenol red; Thermo Fisher Scientific, Waltham, MA, USA) supplemented with 10% FBS, 0.29 mg/mL glutamine, 100-unit penicillin and 100 μg/mL streptomycin. For cytotoxicity assays, compounds were prepared in 12-point 1:3 serial dilutions in DMSO starting at 10 mM. Then, 50 nL of compound (0.5% final DMSO concentration) were transferred with an Acoustic Transfer System (ATS) (Biosero) into white, solid bottom 1536-well assay plates (Greiner BioOne custom GNF mold; Monroe, NC, USA). Puromycin (12-point serial dilution starting at 10 μM) and 0.5% DMSO were used as positive and negative controls, respectively. After addition of compound, HepG2-A16-CD81EGFP cells in 10 µL of the above medium (5% FBS) were seeded into the assay plates at a density of 3,000 cells per well. Assay plates were incubated at 37 °C in 5% CO2for 72 h. To assess the HepG2 viability, the assay medium was removed by inverted centrifugation of the plate at 150 xg for 30 s. Then, 2 μL per well of CellTiter-Glo reagent (Promega diluted 1:2 with deionized water) was added using a MicroFlo liquid handler (BioTek). Immediately after addition of the CellTiter-Glo reagent, the luminescence was measured with an EnVision Multilabel reader (PerkinElmer). EC50 values were calculated using the normalized bioluminescence intensity and a non-linear, variable slope, four-parameter regression curve-fitting model in Prism 5 (GraphPad Software Inc., San Diego, CA, USA).

[2] = test system: S. mansoni adults; assay: Phenotypic screen of S. mansoni adult worms (severity score); format: cell-based, Schistosoma mansoni; details: for ADULT SEVERITY SCORES @ 10 µM, 1 h / ADULT SEVERITY SCORES @ 10 µM, 5 h / ADULT SEVERITY SCORES @ 10 µM, 24 h: score 0-4; for Adult Severity Score (10 µM) 1 h / Adult Severity Score (10 µM) 5 h / Adult Severity Score (10 µM) 24 h: score 0 to 4
Method: (§1) Functionalized Pht-based molecules were synthesized, and phenotypically screened at 10 µM as a function of time against S. Mansoni somules (up to 72 h) and adults (up to 24 h). The resulting phenotypes were classified using a previously described nomenclature that records the many non-exclusive changes (descriptors) that can occur in the parasite in response to chemical insult. Each descriptor is converted into a value from 0 (no effect) to 4 (maximal effect) to allow for comparisons of effects on the parasite between compounds [40, 41, 42, 43]. For consistency, we consider a score of 2 to be the minimum for a compound to be considered active.
(§2) Maintenance of the S. mansoni (Naval Medical Research Institute (NMRI) isolate), life cycle involved male Golden Syrian Hamsters and Biomphalaria glabrata snails (NMRI isolate), as the definitive and intermediate hosts, respectively. Use of hamsters was approved by the Institutional Animal Care and Use Committee of the University of California San Diego. The preparation of somules (post-infective larvae derived from infectious larvae called cercariae) and adult worms (≥42-days-old), and their co-incubation with test compounds using a customized Basch incubation medium were as described. Screens of two developmental stages were employed in order to identify compounds with a potential broader spectrum of efficacy than the current drug, PZQ, which is deficient in this regard. Screens with somules employed 96-well round-bottomed plates and 40–50 animals/well, whereas screens with adults employed 24-well flat-bottomed plates and approximately 5–7 males and 2–3 females/well. Screens employed a final compound concentration of 10 µM in DMSO (at 0.5% and 0.1% final concentrations for somules and adults, respectively). The complex and often dynamic phenotypic responses that the schistosome parasite is capable of were observed using an Axiovert A1 inverted microscope at the times indicated in the data table. Observations were codified using a defined nomenclature that involves simple “descriptors”, to convey changes in shape, motility and appearance compared to DMSO controls. Each descriptor was given a value of 1 and these were added up to yield a “severity score” with a maximum of 4. Evidence of degeneracy or death was awarded a value of 4 for adult parasites specifically, the inability to adhere to the bottom of the well using oral or ventral suckers was given a score of 1 and damage to the tegument (surface) was awarded a value of 4 on the understanding that such damage in vivo would compromise survival. Scores were averaged across the two experiments.

[3] = test system: S. mansoni somules (schistosomula, post-infective larvae); assay: Phenotypic screen of S. mansoni somules (severity score); format: cell-based, Schistosoma mansoni; design: key to SOMULE DESCRIPTORS @ 10 µM, 24 h: Dark = dark; S = Slow; O = overactive; I = Immobile; R = shape altered from normal (either larger or smaller); Deg = degenerative changes; D = dead; pD = "partial death:" % of worms in a well that appear to be dead; details: for Somule Severity Score (10 µM) 24 h: score 0 (no effect) to 4 (maximum), averaged across two experiments; for SOMULE SEVERITY SCORES @ 10 µM, 24 / SOMULE SEVERITY SCORES @ 10 µM, 48 / SOMULE SEVERITY SCORES @ 10 µM, 72: score 0-4; for SOMULE SEVERITY SCORES @ 10 µM, 48 / Somule Severity Score (10 µM) 48 h: 48 h; for Somule Severity Score (10 µM) 48 h / Somule Severity Score (10 µM) 72 h: score 0 to 4; for SOMULE DESCRIPTORS @ 10 µM, 72 h / SOMULE SEVERITY SCORES @ 10 µM, 72 / Somule Severity Score (10 µM) 72 h: 72 h
Method: as §1, §2

SMILES | IC50 [1] | EC50 [1] | ADULT SEVERITY SCORES @ 10 µM, 1 h [2] | Adult Severity Score (10 µM) 1 h [2] | ADULT SEVERITY SCORES @ 10 µM, 5 h ([2]; 5 h) | Adult Severity Score (10 µM) 5 h ([2]; 5 h) | ADULT SEVERITY SCORES @ 10 µM, 24 h ([2]; 24 h) | Adult Severity Score (10 µM) 24 h ([2]; 24 h) | Somule Severity Score (10 µM) 24 h ([3]; 24 h) | SOMULE SEVERITY SCORES @ 10 µM, 24 ([3]; 24 h) | SOMULE SEVERITY SCORES @ 10 µM, 48 [3] | Somule Severity Score (10 µM) 48 h [3] | SOMULE DESCRIPTORS @ 10 µM, 72 h ([3]; phenotypic descriptors) | SOMULE SEVERITY SCORES @ 10 µM, 72 [3] | SOMULE DESCRIPTORS @ 10 µM, 24 h ([3]; 24 h, phenotypic descriptors) | Somule Severity Score (10 µM) 72 h [3] | ADULT DESCRIPTORS @ 10 µM, 5 h ([2]; 5 h, phenotypic descriptors) | ADULT DESCRIPTORS @ 10 µM, 24 h ([2]; 24 h, phenotypic descriptors)
CCC(C)C(c1nc2ccccc2n1Cc1cn(-c2c(F)cccc2F)nn1)N1C(=O)c2ccccc2C1=O (centres unmarked) [6x, 2-(1-(1-((1-(2,6-Difluorophenyl)-1H-1,2,3-triazol-4-yl)methyl)-1H-benzo[d]imidazol-2-yl)-2-methylbutyl)isoindoline-1,3-dione] | > 100 µM | > 100 µM | 0 | 0 | 0 | 0 | 0 | 0 | 0 | 0 | 0 | 0 | Dark, R | 2 | – | – | – | –
Cc1ccc(-n2cc(Cn3c(C(C)N4C(=O)c5ccccc5C4=O)nc4ccccc43)nn2)cc1 (centres unmarked) [6z, 2-(1-(1-((1-(p-Tolyl)-1H-1,2,3-triazol-4-yl)methyl)-1H-benzo[d]imidazol-2-yl)ethyl)isoindoline-1,3-dione] | > 100 µM | > 100 µM | 0 | 0 | 0 | 0 | 0 | 0 | 1 | 1 | 0 | 0 | – | 0 | R | 0 | – | –
CCC(C)C(c1nc2ccccc2n1Cc1cn(-c2ccc(F)cc2F)nn1)N1C(=O)c2ccccc2C1=O (centres unmarked) [6w, 2-(1-(1-((1-(2,4-Difluorophenyl)-1H-1,2,3-triazol-4-yl)methyl)-1H-benzo[d]imidazol-2-yl)-2-methylbutyl)isoindoline-1,3-dione] | > 100 µM | > 100 µM | 0 | 0 | 2 | 2 | 2 | 2 | 0 | 0 | 0 | 0 | pD50 | 2 | – | 2 | Unc, on sides | Unc, on sides
CC(c1nc2ccccc2n1Cc1cn(-c2ccc(F)cc2)nn1)N1C(=O)c2ccccc2C1=O (centres unmarked) [6y, 2-(1-(1-((1-(4-Fluorophenyl)-1H-1,2,3-triazol-4-yl)methyl)-1H-benzo[d]imidazol-2-yl)ethyl)isoindoline-1,3-dione] | > 100 µM | > 100 µM | 0 | 0 | 0 | 0 | 0 | 0 | 0 | 0 | 0 | 0 | – | 0 | – | 0 | – | –
CCC(C)C(c1nc2ccccc2n1Cc1cn(-c2ccccc2F)nn1)N1C(=O)c2ccccc2C1=O (centres unmarked) [6v, 2-(1-(1-((1-(2-Fluorophenyl)-1H-1,2,3-triazol-4-yl)methyl)-1H-benzo[d]imidazol-2-yl)-2-methylbutyl)isoindoline-1,3-dione] | > 100 µM | > 100 µM | 0 | 0 | 0 | 0 | 0 | 0 | 0 | 0 | 0 | 0 | – | 0 | – | 0 | – | –
